Data set [1] has as its system Trachea. The experiment in a line: Bifunctional antagonist activity at muscarinic M3 receptor /agonist activity at beta-2 adrenoceptor in Dunkin-Hartley guinea pig trachea assessed as inhibition of acetylcholine-induced bronchoconstriction at 3 nmol/Kg, IT(Intratracheal) measured after 1 hr by Konzett-Roessler methodology relative to control. In kind it is functional. Particulars: Cavia porcellus.

Data set [2] can be described thus: Metabolic stability in rat lung S9 fraction assessed as half life at 1 uM measured after 0 to 60 mins in presence of NADPH by LC-MS/MS analysis. Format: ADME, subcellular. Particulars: time 0-60 min.
Data set [3] is described as follows: Metabolic stability in Dunkin-Hartley guinea pig hepatocytes assessed as clearance at 1 uM measured per 10^6 cells and incubated upto 90 mins by LC-MS/MS analysis. In kind it is ADME, cell-based, Cavia porcellus, Hepatocyte. As to conditions: read-out: CLH.
Data set [4] in a line: In vivo antagonist activity at muscarinic M3 receptor in Dunkin-Hartley guinea pig trachea assessed as inhibition of acetylcholine-induced bronchoconstriction at 3 nmol/Kg, IT(Intratracheal) measured after 24 hr in presence of ICI-118551 by Konzett-Roessler methodology relative to control. Particulars: Cavia porcellus. In kind it is functional.
Data set [5] is described as follows: Efflux ratio of apparent permeability from basolateral to apical side over apical to basolateral side in human Caco-2 cells at 10 uM and measured after 2 hrs by LC-MS/MS analysis. Format: ADME, cell-based.
For data set [6], the system named is Trachea. The experiment in a line: Bifunctional antagonist activity at muscarinic M3 receptor /agonist activity at beta-2 adrenoceptor in Dunkin-Hartley guinea pig trachea assessed as inhibition of acetylcholine-induced bronchoconstriction at 3 nmol/Kg, IT(Intratracheal) measured after 24 hr by Konzett-Roessler methodology relative to control. Format: functional. Particulars: Cavia porcellus.

The nature of data set [7]: Metabolic stability in human liver microsomes assessed as clearance at 1 uM measured per mg protein incubated upto 60 mins in presence of NADPH by LC-MS/MS analysis. As to conditions: read-out: CLH. Format: ADME, Microsome. In general terms: Microsomes from liver hold many membrane-bound enzymes, among them those of drug oxidation.
Data set [8] can be described thus: Metabolic stability in rat liver microsomes assessed as clearance at 1 uM measured per mg protein incubated upto 60 mins in presence of NADPH by LC-MS/MS analysis. In kind it is ADME, Microsome. As to conditions: read-out: CLH.
The nature of data set [9]: In vivo agonist activity at beta-2 adrenoceptor in Dunkin-Hartley guinea pig trachea assessed as inhibition of histamine-induced bronchoconstriction at 3 nmol/Kg, IT(Intratracheal) measured after 24 hr by Konzett-Roessler methodology relative to control. In kind it is functional. As to conditions: Cavia porcellus.
Data set [10] is described as follows: Protein binding in rat plasma assessed as unbound fraction at 5 uM measured after 4 hrs by LC-MS/MS analysis. Format: ADME, cell-free.
A short description of data set [11]: Metabolic stability in Dunkin-Hartley guinea pig lung S9 fraction assessed as half life at 1 uM measured after 0 to 60 mins in presence of NADPH by LC-MS/MS analysis. In kind it is ADME, subcellular, Cavia porcellus. Particulars: time 0-60 min.
The nature of data set [12]: Apparent permeability across apical to basolateral side in human Caco-2 cells at 10 uM and measured after 2 hrs by LC-MS/MS analysis. Format: ADME, cell-based. (Passage across Caco-2 layers is used to estimate intestinal permeability.)
A short description of data set [13]: Apparent permeability across basolateral to apical side in human Caco-2 cells at 10 uM and measured after 2 hrs by LC-MS/MS analysis. Format: ADME, cell-based.
A short description of data set [14]: Metabolic stability in rat hepatocytes assessed as clearance at 1 uM measured per 10^6 cells and incubated upto 90 mins by LC-MS/MS analysis. In kind it is ADME, cell-based, Hepatocyte. Particulars: read-out: CLH.
The nature of data set [15]: Metabolic stability in human hepatocytes assessed as clearance at 1 uM measured per 10^6 cells and incubated upto 90 mins by LC-MS/MS analysis. Format: ADME, cell-based, Hepatocyte. As to conditions: read-out: CLH.
Data set [16] can be described thus: Protein binding in human plasma assessed as unbound fraction at 5 uM measured after 4 hrs by LC-MS/MS analysis. Format: ADME, cell-free.
The nature of data set [17]: In vivo antagonist activity at muscarinic M3 receptor in Dunkin-Hartley guinea pig trachea assessed as inhibition of acetylcholine-induced bronchoconstriction at 3 nmol/Kg, IT(Intratracheal) measured after 1 hr in presence of ICI-118551 by Konzett-Roessler methodology relative to control. Format: functional. As to conditions: Cavia porcellus.
A short description of data set [18]: Metabolic stability in human lung S9 fraction assessed as half life at 1 uM measured after 0 to 60 mins in presence of NADPH by LC-MS/MS analysis. In kind it is ADME, subcellular. As to conditions: time 0-60 min.
The nature of data set [19]: Protein binding in Dunkin-Hartley guinea pig plasma assessed as unbound fraction at 5 uM measured after 4 hrs by LC-MS/MS analysis. Format: ADME, cell-free, Cavia porcellus.
Data set [20] can be described thus: In vivo agonist activity at beta-2 adrenoceptor in Dunkin-Hartley guinea pig trachea assessed as inhibition of histamine-induced bronchoconstriction at 3 nmol/Kg, IT(Intratracheal) measured after 1 hr by Konzett-Roessler methodology relative to control. In kind it is functional. Particulars: Cavia porcellus.

One may read the inhibition in vivo as the drop in the measured response relative to a control, in per cent. In general, half-life refers to how long it takes for the measured level to halve. The term efflux ratio denotes a quotient of directional permeabilities that is used to spot active efflux. As usually defined, the Papp A→B is the apparent permeability from the apical to the basolateral side of a cell layer. A word on the Papp B→A: it is the apparent permeability from the basolateral to the apical side of a cell layer. In the case of `O=C(N[C@@H](c1ccccc1)c1cccc(OCc2ccc(CCNC[C@H](O)c3ccc(O)c4[nH]c(=O)ccc34)cc2)c1)O[C@H]1CN2CCC1CC2` (racemic), the inhibition in vivo at 0.003 µmol/kg in data set [1] is 91%; in data set [4], 54%; in data set [6], 77%; in [9], 35%; in [17], 78%; in data set [20], 67%. For the same compound, the half-life at 1 µM in data set [2] came to 3.33 h; in [11], 1.17 h; in data set [18] it was 3.6 h. For the same compound, the hepatocyte CLint at 1 µM in [3] came out at 17 µL/min/1e6 cells; in [14], 25 µL/min/1e6 cells; in [15], 6 µL/min/1e6 cells. Besides, the efflux ratio at 2 h, 10 µM in data set [5] turned out to be 1.5. The microsomal CLint at 1 µM in data set [7] is 16 µL/min/mg; in data set [8] it was 10 µL/min/mg. In addition, the Fu was found to be 98% in [10], 98% in data set [16] and 99% in data set [19]. Also, the Papp A→B at 2 h, 10 µM in data set [12] is 2 ×10⁻⁶ cm/s. Further, the Papp B→A at 2 h, 10 µM in [13] is 3.1 ×10⁻⁶ cm/s.
